Data taken from US20220008406A1, “USE OF NUCIFERIN AND LOTUS LEAF EXTRACT IN THE PREPARATION OF A MEDICAMENT FOR TREATING ATROPHIC GASTRITIS AND/OR BLOCKING TRANSFORMATION OF GASTRITIS INTO CANCER” (priority 2018, published 2022).
“Also recorded” adds a separate entry of the source.

Tests used:
[1] = system: colon cancer; conditions: people who take aspirin for a long time; cited from earlier work
[2] = system: rats with chronic atrophic gastritis; test: Nuciferine treatment of rats with chronic atrophic gastritis with intestinal metaplasia induced by sodium deoxycholate and ammonia water; format: in vivo, SD rats; conditions: for pathological state of chronic atrophic gastritis, HE-stained gastric tissue sections: 4 weeks after 8 weeks modeling, vs model group
Excerpt: An animal model of chronic atrophic gastritis induced by sodium deoxycholate and ammonia water was selected. After the model was successfully established, celecoxib and nuciferine were given by gavage.
The experiment: The experimental animals were from Beijing Weitong Lihua Laboratory Animal Technology Co., Ltd. Thirty SD rats with a specific pathogen free (SPF) grade of 200±20 g were selected, with half males and half males, and randomly divided into […]: normal control group, chronic atrophic gastritis (CAG) model group, the positive drug celecoxib intervention group and the nuciferine intervention group, with 6 rats in each group. The nuciferine was purchased from Chengdu Refines Biotechnology Co., Ltd., with a specification of 5 g and a purity of over 98%. Celecoxib was purchased from Beijing Bailingwei Technology Co., Ltd., with brand J&K, a specification of 1 g, and purity above 98%. Sodium deoxycholate was purchased from Amresco, USA, with a specification of 100 g. The rats in the model group, celecoxib intervention group and nuciferine intervention group were given sodium deoxycholate solution and ammonia to induce chronic atrophic gastritis. 20 mmol/L sodium deoxycholate was administered […] at a dose of 6 ml/kg, twice a week on an empty stomach, 0.1% ammonia water was drunk freely, and the model was continuously modeled for 8 weeks. […] After modeling, the celecoxib group and the nuciferine intervention group were given celecoxib 10 mg/kg, nuciferine 40 mg/kg, and 10 mg/kg by gavage administration, once a day. During the experiment, the rats' body weight and food intake were observed.
At the end of the dosing experiment, after the rats were sacrificed by dislocation, the stomach tissue was quickly taken out and prepared for pathological sectioning. The obtained gastric tissue was cut along the greater curvature of the stomach, washed with saline, blotted dry with filter paper, and fixed with formalin solution (10% formaldehyde solution). The sections were embedded, dehydrated by alcohol, and then made transparent with xylene. And then the sections were waxed and embed in paraffin. In the staining stage, the sections were soaked in xylene solution for 10 minutes each time for 3 times; then they were soaked in absolute ethanol and rinsed in tap water. Finally, the sections were stained with hematoxylin (to stain the nucleus) and eosin (to stain the cytoplasm), and the sections were mounted with neutral gum. Finally, the pathological changes of rat stomach tissue were observed under light microscope.

[3] = system: gastric mucosal injury model rats; test: Protection against gastric mucosal damage induced by absolute ethanol in rats; format: in vivo, SD rats; conditions: for congestion and bleeding of the gastric mucosa: then 1.0 mL absolute ethanol
Excerpt: After continuous administration of […] and […] in rats, gastric mucosal damage was induced by absolute ethanol, and the gastric mucosal damage was observed under a microscope after dissection.
The experimental: The experimental animals were from Beijing Sibeifu Biotechnology Co., Ltd., and 30 SD rats of 200±20 g specific pathogen free (SPF) grade, male, were chosen and randomly divided into 5 groups: normal control group, the gastric mucosal injury model group, the nuciferine low-dose group, the nuciferine high-dose group and the lotus leaf extract group, as shown in Table 3. The low-dose nuciferine group, the high-dose nuciferine group and the lotus leaf extract group were administered intragastrically for 14 days, once a day. The nuciferine was purchased from Chengdu Refines Biotechnology Co., Ltd., with a specification of 5 g and a purity of over 98%. The lotus leaf extract was purchased from Hebei Chenguang Biotechnology Group Handan Co., Ltd., with a specification of 1 kg and a content of nuciferine of more than 0.4%. 1 hour after the rats in the low-dose nuciferine group, the high-dose nuciferine group and the lotus leaf extract group were given continuous administration, the rats in the control group and the model group were strictly fasted for 24 hours (with water available), and medicine was also prohibited during this period. Rats in the model group, the low-dose nuciferine group, the high-dose nuciferine group, and the lotus leaf extract group were given 1.0 mL of absolute ethanol per rat by intragastric administration; 1 hour after the completion of the modeling, the rats were sacrificed by blood sampling from the abdominal aorta, and the stomach was taken by cutting the abdomen, was injected with 10% formaldehyde solution, and fixed for 20 minutes, then the stomach was cut along the greater curvature of the same and was washed to remove the stomach contents, and a general observation under a dissecting microscope was conducted and the length of injury (mm) was measured.

[4] = system: Drosophila gastrointestinal stem cells; test: DSS-induced abnormal proliferation of Drosophila gastrointestinal stem cells (esg-GFP); format: in vivo
Excerpt: The gastrointestinal tumorigenesis model reported in the publication “Cell Stem Cell” of “Cell” Press was select. Dextran sulfate sodium (DSS) was used to induce abnormal proliferation of Drosophila gastrointestinal stem cells to simulate the process of tumorigenesis. During the modeling period, nuciferine and lotus leaf extract were given.
The experimental: Dextran sulfate sodium (DSS) was used to induce abnormal proliferation of drosophila gastrointestinal stem cells to simulate the process of tumorigenesis. The experimental drosophila were esg-GFP purchased from Tsinghua Drosophila Center. GFP (green fluorescent protein driven by esg-Ga14) can specifically label intestinal stem cells and enteroblasts. A solution containing 20% sucrose, 3% DSS (average molecular weight 40 kDa) and 0.5% dimethyl sulfoxide (DMSO) was prepared, and the solution was mixed with the drosophila food, and the mixture was placed half-dry and was then used to feed the drosophila to perform modeling. During the modeling period, different groups were given nuciferine and lotus leaf extract. The nuciferine was purchased from Chengdu Refines Biotechnology Co., Ltd., with a specification of 5 g and a purity of over 98%. The lotus leaf extract was purchased from Hebei Chenguang Biotechnology Group Handan Co., Ltd., with a specification of 100 g and a nuciferine content of more than 0.4%. Sodium dextran sulfate was purchased from Beijing Zhongkekeao Biotechnology Co., Ltd. with a brand of mp and a specification of 50 g. The dimethyl sulfoxide was purchased from Amresco, USA, with a specification of 500 ml.
1) The Nuciferine Experiment Groups
Model control group: medium+0.5% DMSO+3% DSS
Low-dose nuciferine group: medium+0.5% DMSO+3% DSS+nuciferine 100 μM
High-dose nuciferine group: medium+0.5% DMSO+3% DSS+nuciferine 200 μM
2) The Lotus Leaf Extract Experiment Groups
Lotus leaf extract low-dose group: medium+0.5% DMSO+3% DSS+lotus leaf extract (containing 100 μM […])
Lotus leaf extract medium-dose group: medium+0.5% DMSO+3% DSS+lotus leaf extract (containing 200 μM […]) […]

[5] = system: MNNG-GES-1 cells; test: MTT assay on MNNG-stimulated GES-1 cell model of transformation of gastritis to gastric cancer; format: cell-based, human; conditions: nuciferine 48 h
Excerpt: The gastritis cancer transformation model used in this example formed by human gastric epithelial cells (GES-1) induced by chemical mutagens N-methyl N-nitronitrosoguanidine (MNNG) was as reported in the literature. The nuciferine was purchased from Chengdu Refines Biotechnology Co., Ltd., with a specification of 1 g and a purity of over 98%. The MNNG was purchased from Beijing Baiyiyi Chuang Biotechnology Co., Ltd., with a brand Tixiai and a specification of 5 g. The GES-1 cells were purchased from Shanghai Xuran Biotechnology Co., Ltd. The phosphate buffered saline (PBS) was purchased from Amresco, USA, with a specification of 10 L. The dimethyl sulfoxide (DMSO) was purchased from Amresco, USA, with a specification of 500 ml. The fetal bovine serum (FBS) was purchased from Amresco, USA, with a specification of 100 ml. The 3-(4,5-Dimethylthiazole-2)-2,5-diphenyltetrazolium bromide (MTT) was purchased from Shanghai Biyuntian Biotechnology Co., Ltd., with a specification of 500 mg.
GES-1 cells was planted in a 96-well plate (8000 cells/well, leave a row of blank holes, discard the edge holes and add an equal volume of PBS to reduce evaporation), the old solution was aspirated the next day, and 10% FBS containing no double antibody medium was added, […] MNNG was added to induce stimulation, culturing for 24 h in the dark, and discarding the culture medium containing MNNG. […]

CC(=O)Oc1ccccc1C(=O)O [aspirin]
reduction of incidence of colon cancer [1]: 24%

COc1cc2c3c(c1OC)-c1ccccc1C[C@H]3N(C)CC2 [nuciferine]
pathological state of chronic atrophic gastritis, HE-stained gastric tissue sections ([2]; 10 mg/kg (celecoxib group; low-dose nuciferine group) by gavage once a day): reduced to the state of chronic non-atrophic gastritis | pathological state of chronic atrophic gastritis, HE-stained gastric tissue sections ([2]; 40 mg/kg (high-dose nuciferine group) by gavage once a day): best effect; also recorded: significantly reduced | weight of rats ([2]; CAG model rats, therapeutic administration, dose groups not distinguished): increased the weight of rats | treatment of chronic atrophic gastritis and intestinal metaplasia of rats (pathological slices) ([2]; intervention groups, doses not distinguished): effectively treated | gastric mucosal injury of rats compared with the model group ([3]; doses not distinguished): significantly improved; also recorded: improved compared with the model group | congestion and bleeding of the gastric mucosa ([3]; nuciferine high-dose 40 mg/kg intragastric once a day 14 days): no congestion and bleeding | congestion and bleeding of the gastric mucosa ([3]; nuciferine low-dose 20 mg/kg intragastric once a day 14 days): reduced | abnormal proliferation of Drosophila gastrointestinal stem cells and mucosal ulceration ([4]; doses not distinguished): effectively inhibited | proliferation of drosophila gastrointestinal stem cells ([4]; high-dose nuciferine 200 μM in medium + 0.5% DMSO + 3% DSS, 3-5 days at 25° C.): returned to normal | abnormal proliferation of drosophila gastrointestinal stem cells ([4]; low-dose nuciferine 100 μM in medium + 0.5% DMSO + 3% DSS, 3-5 days at 25° C.): reduced | IC50 ([5]; Homo sapiens, GES1, GES-1 cells stimulated with MNNG 24 h, read-out: half inhibitory concentration (IC50) on cells transformed from gastritis to gastric cancer): 92.7 µM | viability of MNNG-GES-1 cells ([5]; P<0.05): significantly inhibiting
